How the values were obtained:
Format in all cases: in vivo
[1] = system: Surinam grass (Brachiaria decumbens); assay: Test B preemergence
How it was run: (§1)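 Pre: seeded pots sprayed, chemical in non-phytotoxic solvent/surfactant mix. Post: plants 2–18 cm, 1–4 leaf, same formulation. Greenhouse 13–15 d; visual % control vs untreated, 0–100 scale.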

rice (Oryza saliva) [2] = assay: Test B preemergence; conditions: preemergence; Rate 125 g/ha; scale of 0 to 100 where 0 is no effect and 100 is complete control; 13 to 15 days
How it was run: as §1

[3] = system: lambsquarters (Chenopodium album); assay: Test B preemergence
How it was run: as §1

corn (Zea mays) [4] = assay: Test B preemergence
How it was run: as §1

[5] = system: velvetleaf (Abutilon theophrasti); assay: Test B preemergence
How it was run: as §1

[6] = system: crabgrass (Digitaria sanguinalis); assay: Test B preemergence
How it was run: as §1

[7] = system: barnyardgrass (Echinochloa crus-galli); assay: Test B preemergence
How it was run: as §1

[8] = system: morning glory (Ipomoea hederacea); assay: Test B preemergence
How it was run: as §1

[9] = system: cocklebur (Xanthium strumarium); assay: Test B preemergence
How it was run: as §1

[10] = system: giant foxtail (Setaria faberii); assay: Test B preemergence
How it was run: as §1

[11] = system: pigweed (Amaranthus retroflexus); assay: Test B preemergence
How it was run: as §1

[12] = system: Surinam grass (Brachiaria decumbens); assay: Test B postemergence; conditions: 13 to 15 days
How it was run: as §1

corn (Zea mays) [13] = assay: Test B postemergence; conditions: 13 to 15 days
How it was run: as §1

[14] = system: blackgrass (Alopecurus myosuroides); assay: Test B postemergence; conditions: 13 to 15 days
How it was run: as §1

[15] = system: velvetleaf (Abutilon theophrasti); assay: Test B postemergence; conditions: Rate 500 g/ha, scale 0 to 100, 0 is no effect, 100 is complete control, 13 to 15 days
How it was run: as §1

[16] = system: barnyardgrass (Echinochloa crus-galli); assay: Test B postemergence; conditions: 13 to 15 days
How it was run: as §1

[17] = system: wheat (Triticum aestivum); assay: Test B postemergence; conditions: Rate 500 g/ha, scale 0 to 100, 0 is no effect, 100 is complete control, 13 to 15 days
How it was run: as §1

[18] = system: morning glory (Ipomoea hederacea); assay: Test B postemergence; conditions: Rate 500 g/ha, scale 0 to 100, 0 is no effect, 100 is complete control, 13 to 15 days
How it was run: as §1

[19] = system: giant foxtail (Setaria faberii); assay: Test B postemergence; conditions: 13 to 15 days
How it was run: as §1

[20] = system: pigweed (Amaranthus retroflexus); assay: Test B postemergence; conditions: Rate 500 g/ha, scale 0 to 100, 0 is no effect, 100 is complete control, 13 to 15 days
How it was run: as §1

Sunflower = assay: Test C preemergence; conditions: Rate 250 g/ha, scale 0 to 100, 0 no effect, 100 complete control
rice (Oryza saliva) [21] = assay: Test C flooded paddy test; conditions: for Rice plant response rating: Flooded Paddy, scale 0 to 100, 0 no effect, 100 complete control; for Plant response rating, Rice: flooded paddy test, scale 0 to 100 (0 no effect, 100 complete control)
How it was run: (§2)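 Greenhouse-maintained for 12 to 14 days after treatment, the paddy plants (2-leaf stage at application) were scored visually against controls. A score of 0 denotes no effect and a score of 100 denotes complete control.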

[22] = system: duck salad (Heteranthera limosa); assay: Test C flooded paddy test; conditions: for Ducksalad plant response rating: Flooded Paddy, scale 0 to 100, 0 no effect, 100 complete control; for Plant response rating, Ducksalad: flooded paddy test, scale 0 to 100 (0 no effect, 100 complete control)
How it was run: as §2

[23] = system: barnyardgrass (Echinochloa crus-galli); assay: Test C flooded paddy test; conditions: for Barnyardgrass plant response rating: Flooded Paddy, scale 0 to 100, 0 no effect, 100 complete control; for Plant response rating, Barnyardgrass: flooded paddy test, scale 0 to 100 (0 no effect, 100 complete control)
How it was run: as §2

[24] = system: smallflower flatsedge (Cyperus difformis); assay: Test C flooded paddy test; conditions: for Flatsedge plant response rating: Flooded Paddy, scale 0 to 100, 0 no effect, 100 complete control; for Plant response rating, Flatsedge: flooded paddy test, scale 0 to 100 (0 no effect, 100 complete control)
How it was run: as §2

[25] = Preemergence, Rate 500 g/ha, scale 0 to 100, 0 no effect, 100 complete control
[26] = preemergence, Rate 125 g/ha, scale of 0 to 100 where 0 is no effect and 100 is complete control, 13 to 15 days
[27] = Rate 125 g/ha, scale 0 (no effect) to 100 (complete control)
[28] = Rate 500 g/ha, scale 0 to 100, 0 is no effect, 100 is complete control

CC(C)(C)c1ccn(C2CCN(c3cccc([S+]([O-])C(F)(F)F)c3)C2=O)n1 (stereo not shown) [Compound 101]
70: Plant response rating, Corn (corn (Zea mays) [4]; [25])
20: Plant response rating, Flatsedge ([24]; Rate 62 g/ha)
0: Plant response rating, Surinam grass [1, 26] | Plant response rating, Rice (rice (Oryza saliva) [2]) | Plant response rating, Corn (corn (Zea mays) [4]; [26]) | Plant response rating, Velvetleaf [5, 25] | Plant response rating, Velvetleaf [5, 26] | Plant response rating, Morningglory [8, 25] | Plant response rating, Morningglory [8, 26] | Plant response rating, Cocklebur [9, 25] | Plant response rating, Cocklebur [9, 26] | Plant response rating, Foxtail, Giant [10, 26] | Plant response rating, Surinam grass [12, 27] | Plant response rating, Surinam grass [12, 28] | Plant response rating, Corn (corn (Zea mays) [13]; [27]) | Plant response rating, Corn (corn (Zea mays) [13]; [28]) | Plant response rating, Blackgrass [14, 27] | Plant response rating, Blackgrass [14, 28] | Plant response rating, Velvetleaf [15] | Plant response rating, Barnyardgrass [16, 27] | Plant response rating, Barnyardgrass [16, 28] | Plant response rating, Wheat [17] | Plant response rating, Morningglory [18] | Plant response rating, Foxtail, Giant [19, 27] | Plant response rating, Foxtail, Giant [19, 28] | Plant response rating, Pigweed [20] | Plant response rating, Rice (rice (Oryza saliva) [21]; Rate 62 g/ha) | Plant response rating, Ducksalad ([22]; Rate 62 g/ha) | Plant response rating, Barnyardgrass ([23]; Rate 62 g/ha)
100: Plant response rating, Lambsquarters [3, 25] | Plant response rating, Lambsquarters [3, 26] | Plant response rating, Crabgrass [6, 25] | Plant response rating, Barnyardgrass [7, 25] | Plant response rating, Foxtail, Giant [10, 25] | Plant response rating, Pigweed [11, 25] | Ducksalad plant response rating ([22]; Rate 250 g/ha) | Ducksalad plant response rating ([22]; Rate 500 g/ha) | Flatsedge plant response rating ([24]; Rate 500 g/ha)
50: Barnyardgrass plant response rating ([23]; Rate 250 g/ha)
90: Plant response rating, Crabgrass [6, 26] | Rice plant response rating (rice (Oryza saliva) [21]; Rate 500 g/ha) | Plant response rating, Ducksalad ([22]; Rate 125 g/ha) | Barnyardgrass plant response rating ([23]; Rate 500 g/ha) | Flatsedge plant response rating ([24]; Rate 250 g/ha) | Plant response rating, Flatsedge ([24]; Rate 125 g/ha)
80: Plant response rating, Surinam grass [1, 25] | Rice plant response rating (rice (Oryza saliva) [21]; Rate 250 g/ha) | Plant response rating, Rice (rice (Oryza saliva) [21]; Rate 125 g/ha)
40: Plant response rating, Pigweed [11, 26] | Plant response rating, Barnyardgrass ([23]; Rate 125 g/ha)
30: Plant response rating, Barnyardgrass [7, 26] | Plant response rating, Sunflower (Sunflower)
